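Exposure lasted 48 hours, with cells grown in 96-well plates and compounds tested at five concentrations. GI50: concentration for 50% inhibition of growth. The concentration for full growth arrest is given as TGI.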 Where a SMILES comes first, the peptide text is derived from it. Bridges are numbered along the chain shown (N, C = ends). [ ]: non-standard residue; d: D form. The star is where a group is joined. ξ: configuration not given here. ξDab(CH2SO3H) = NC(CCNCS(=O)(=O)O)C(=O)O; Heptanoyl(6-Me) = CC(C)CCCCC(=O)*; Dab = NCC[CH](N)C(=O)O A value given as a limit tells only on which side of the number the result lay.

In the assay the test system is MDA-MB-468 breast. The assay can be described thus: inhibition of tumour cell growth, NCI panel, 48 h.
On to `COc1ccc2c(O)c(/C=C3\N=Nc4ccccc43)oc2c1C[C@@H]1CCNC[C@H]1F`, for which the GI50 was 10400 nM and the TGI was 23600 nM.
Take `CN1CCC2(CC1)NC(=O)c1c(c3ccc(Cl)c(Cl)c3n1C)C2C#N` (stereo not given): the GI50 was 2180 nM and the TGI turned out to be 6870 nM.
`O=C(Nc1ccc(-n2cc(-c3ccncc3)c(-c3ccc(O)c(Cl)c3)n2)cc1)Nc1ccc(Cl)c(C(F)(F)F)c1`: the GI50 is 2960 nM and the TGI came to 13100 nM.
On the same counts, the results for `CN1CCN(Cc2ccc(NC(=O)c3cncc(C#Cc4cnc5ccc(OCC(C)(C)O)nn45)c3)cc2C(F)(F)F)CC1` are 183 nM and 409 nM.
The like results for `Cc1nc(-c2nc(-c3ccc(OC(F)(F)F)cc3)no2)nn1Cc1cccc(N2CCC(S(C)(=O)=O)CC2)c1` were, in that order, under 10 nM and 3900 nM.
As to `S=C(NCCNC(=S)[S][Sn]([c]1ccccc1)([c]1ccccc1)[c]1ccccc1)[S][Sn]([c]1ccccc1)([c]1ccccc1)[c]1ccccc1`, the GI50 was 12.9 nM and the TGI came to 41.9 nM.
Take `CC[C@]12CC(C(=O)OC)=C3Nc4ccccc4[C@@]34CCN(C14)[C@@H]1c3cc4c(cc3O[C@@H]1[C@H]2O)NC1=C(C(=O)OC)C[C@@]2(CC)C3N(CC[C@@]143)C[C@H]1O[C@H]12` (stereo not given in full): the GI50 is 129 nM and the TGI is 1050 nM.
On to `O=C([O][Hg][CH2]C1OCCOC1[CH2][Hg][O]C(=O)c1ccccc1)c1ccccc1` (stereo not given), for which the GI50 was 1710 nM and the TGI is 3080 nM.
On the same counts, the results for `O=[N+]([O-])c1ccc(C2CC(c3ccccc3)=Nc3ccccc3S2)cc1` (stereo not given) are over 100000 nM and over 100000 nM.
As for `N#Cc1c(N)n2c(nc1=Nc1ccc(Cl)cc1)sc1cc(Cl)ccc12`, the GI50 was 3620 nM and the TGI is over 100000 nM.
On to `N=C(N)SCc1c2ccccc2c(CSC(=N)N)c2ccccc12`, for which the GI50 is 2320 nM and the TGI came out at 9810 nM.
In the case of `CC(C)(C)[Si](C)(C)OC1[C@@H](O[Si](C)(C)C(C)(C)C)[C@@H](CNC(=O)NC(=O)CF)O[C@H]1n1cnc2c(NC(=O)Nc3ccccc3)ncnc21` (stereo not given in full), the GI50 was 3210 nM and the TGI was 20100 nM.
On the same counts, the results for `CC/C(=C(/c1ccc(O)cc1)c1ccc(OCCN)cc1)c1ccccc1` are 1570 nM and 3940 nM.
For `CCCCCCCCCCCCSC1=C(Cl)C(=O)C(OC)=C(OC)C1=O`, the GI50 is 438 nM and the TGI is 16900 nM.
On to `COc1cc2c(c(OC)c1OC)-c1ccc(OC)c(=O)cc1[C@@H](NC(C)=O)CC2`, for which the GI50 is under 10 nM and the TGI was over 100000 nM.
On the same counts, the results for `O=C(/C(=C/c1ccc([N+](=O)[O-])cc1)SCc1ccc(Cl)cc1)c1ccc(F)cc1` are 2870 nM and 9220 nM.
Take `COc1cc2ncnc(Nc3cccc(Cl)c3F)c2cc1OC(=O)N1CCN(C)C[C@H]1C`: the GI50 is 60.7 nM and the TGI was 1270 nM.
In the case of `Cc1ccc2c(c1)c(Sc1ccc(C(=O)NO)cc1)c1n2CN(C)CC1`, the GI50 is 1100 nM and the TGI turned out to be 2970 nM.
The like results for `COc1cc2c(cc1Cc1cccc(Cl)c1F)c(=O)c(C(=O)O)cn2[C@@H](CO)C(C)C` were, in that order, 3260 nM and 9320 nM.
As to `COc1cccc(/C=N/NC(=O)c2ccccc2N2CCCC2)c1O`, the GI50 was 3330 nM and the TGI was over 100000 nM.
Take `CC[C@@H](C(=O)[C@H](C)[C@H](O)[C@@H](C)[C@H]1O[C@H]([C@@H](CC)C(=O)N(CC)CC)CC[C@H]1C)C1O[C@]2(C=C[C@@H](O)[C@]3(CC[C@@](C)([C@H]4CC[C@](O)(CC)[C@H](C)O4)O3)O2)[C@H](C)C[C@@H]1C` (stereo not given in full): the GI50 was 1810 nM and the TGI is 5800 nM.
The like results for `Cc1cc(O)cc(C)c1/C=C/c1cncc(C(N)=O)c1` were, in that order, 749 nM and 4620 nM.
Turning to `CCCCCCCCC/C(=N\NC(=O)c1ccncc1)c1ccc(O)c(O)c1O`, the GI50 was 161 nM and the TGI came out at 1110 nM.
On the same counts, the results for `COc1cc(C(=O)N2CCN(c3ccccc3)CC2)c2ccccc2n1` are 31.8 nM and 211 nM.
As to `COc1ccc(Nc2cc(C)nc(NCc3ccccc3)n2)cc1`, the GI50 is 776 nM and the TGI stood at 2510 nM.
Take `CCOC(=O)Nc1nc2ccc(Br)cc2s1`: the GI50 is over 50000 nM and the TGI was over 50000 nM.
As for `Cc1ccc2c(n1)C(=O)C(Cl)=C(Nc1ccccc1C(=O)OC(C)(C)C)C2=O`, the GI50 is 1470 nM and the TGI amounted to 3250 nM.
The like results for `N#C[Se]CCN1C(=O)C2C(C1=O)[C@H]1C=C[C@@H]2S1` (stereo not given in full) were, in that order, 2600 nM and 7710 nM.
On the same counts, the results for `CN(C)CCCCC(C(=O)CBr)(c1ccccc1)c1ccccc1` are 1090 nM and 2890 nM.
On the same counts, the results for `CC(=O)Nc1c(I)c(NC(C)=O)c(I)c(C(=O)O)c1I` are over 100000 nM and over 100000 nM.
For the molecule `CCCCCCn1c(-c2ccc(C(=O)O/N=C(\N)c3ccc4ccccc4c3)cc2)nc(-c2ccccc2)c1-c1ccccc1`, the GI50 was 22200 nM and the TGI was 97700 nM.
Regarding `C[C@@H](NC(=O)/C(C#N)=C/c1ccc([N+](=O)[O-])cc1)c1ccccc1`, the GI50 was 1740 nM and the TGI came out at 3370 nM.
Consider `N/C(=N/N=C/c1ccccc1)N/N=C\c1ccccc1`, for which the GI50 is 2520 nM and the TGI came out at 11300 nM.
As to `CCN1C(=O)N(CC)C2C1NN=c1s/c(=C\c3ccco3)c(=O)n12` (stereo not given), the GI50 was 356 nM and the TGI was over 100000 nM.
With `CCOC(=O)c1cc(C(=O)c2cc(OC)c(OC)c(OC)c2)n2c1ccc1ccccc12`, the GI50 was 158 nM.
As for `C[C@]12CC[C@@H]3c4cc(O)c(O)cc4CC[C@H]3[C@@H]1CC[C@@H]2O`, the GI50 is 3820 nM and the TGI came out at 21100 nM.
For `Clc1ccc(Nc2ccnc(N3CCN(c4ccnc5cc(Cl)ccc45)CC3)n2)cc1`, the GI50 was 2080 nM and the TGI came out at 5560 nM.
`Cn1nc(C(F)(F)F)cc1-c1c[nH]c(OCc2ccc(Cl)cc2)c(-c2ccc(Cl)c(C(F)(F)F)c2)c1=O`: the GI50 was 940 nM and the TGI worked out at 4730 nM.
`Cc1cc(Nc2ncc3c(n2)N(C)C(=O)N(c2cc(NC(=O)c4cccc(C(F)(F)F)c4)ccc2C)C3)n(C)n1`: the GI50 is 57.9 nM and the TGI stood at 396 nM.
Regarding `CCC(C)C1NC(=O)C(CCNCS(=O)(=O)O)NC(=O)C(NC(=O)C(CCNCS(=O)(=O)O)NC(=O)C(NC(=O)C(CCNCS(=O)(=O)O)NC(=O)CCCCC(C)C)C(C)O)CCNC(=O)C(C(C)O)NC(=O)C(CCNCS(=O)(=O)O)NC(=O)C(CCNCS(=O)(=O)O)NC(=O)C(C(C)CC)NC1=O` (stereo not given) ({Heptanoyl(6-Me)}-[ξDab(CH2SO3H)]T[ξDab(CH2SO3H)][Dab][ξDab(CH2SO3H)]II[ξDab(CH2SO3H)][ξDab(CH2SO3H)]T; lactam 4-C; configuration not given here), the GI50 is 807 nM and the TGI is 4890 nM.
The like results for `[Cl][Hg][c]1ccc(Cl)s1` were, in that order, 1190 nM and 2770 nM.
For the molecule `COCCNc1ccc2c3c(cccc13)C(=O)N(CCN(C)C)C2=O`, the GI50 was 7100 nM and the TGI was over 25000 nM.
Regarding `COc1cc(/C(=C2/O[C@@H]([C@H]3COC(C)(C)O3)[C@H]3OC(C)(C)O[C@@H]23)c2ccc3ccccc3c2)cc(OC)c1OC`, the GI50 was 4020 nM and the TGI stood at 21100 nM.

These data come from PubChem BioAssay (NCI).
